{"source": "patent US20260216166A1", "about": "“COMPOUND FOR TREATMENT OF ERECTILE DYSFUNCTION” (Initiator Pharma A/S, priority 2023, published 2026)", "key": {"[1]": {"system": "anaesthetized rats", "test": "Intracavernous pressure / spontaneous erections in anaesthetized rats", "type": "in vivo, rat", "method": "For in vivo erectile physiology studies, rats were anaesthetized with pentobarbital sodium (Sygehus Apoteket, Aarhus, Denmark; 50 mg/kg) given intraperitoneally. During the experiment, the rats breathed spontaneously; the body temperature was monitored continuously and was maintained at 37° C. With a midline incision in the perineum, the base of the penis, enclosed by striated muscles, was exposed. The ischiocavernous muscle covering the crus corpus cavernosum was divided on one side, and entrance to the underlying tunica albuginea was given. A 25-gauge needle attached to a heparinized (100 IE ml-1) polyethylene catheter was inserted into the crus corpus cavernosum to measure intracavernous pressure (ICP). A heparinized polyethylene catheter (PE 50) was introduced into the carotid artery to measure mean arterial pressure (MAP). Continuous direct measurements of MAP and ICP were performed with transducers (Disposable BP Transducer, ADInstruments, UK), and registered and analysed on a computerized data acquisition system (PowerLab, ADInstruments).\nA stabilizing period of 20-30 min was allowed before registration of basal ICP and MAP. Through a lower abdominal incision, the cavernous nerve was isolated at the lateral aspect of the prostate, and electrical stimulation was performed with a slender bipolar platinum electrode, which was connected to a S48 stimulator (Grass Instrument Co., Boston, MA, U.S.A.). To measure the maximum amplitude of the erectile response, a first stimulation of the cavernous nerve (square wave pulses of 6 Volts, 10 Hz, 1 ms pulse duration for 30 s) was performed.\nIP2015, sildenafil, clozapine or vehicle were administered by injection in the jugular vein in volumes of maximum 200 μl. […] The observation period of spontaneous erection after injection of IP2015 was 30 min. Clozapine (1 mg/kg) or sildenafil (1 mg/kg) were administered 30 or 10 min prior to 1 mg/kg IP2015 injection, respectively. One group was injected with vehicle alone.\nTo investigate the involvement of proximal neuronal pathways in the effect of IP2015, mechanical denervation was performed. For mechanical denervation the isolated cavernous nerve was cut distal to the major pelvic ganglion. Absence of erectile response to electrical stimulation verified the efficacy of mechanical denervation."}, "[2]": {"test": "Phase II single oral dose pharmacokinetics in male patients with ED", "type": "in vivo", "conditions": "human, plasma, 10 mg single oral dose; for Tmax: male, po, 10 mg", "method": "(§1) The study was an exploratory Phase II, randomised, placebo-controlled, double-blind, crossover study, investigating the effects of a single oral dose of IP2015 on erectile function in males with ED. A dose level of 10 mg was selected. Patients were enrolled into two cohorts. Both cohorts participated in two periods (Period 1 and Period 2) and received a single dose of IP2015 and a single dose of placebo.\nThe IP2015 at a dose of 10 mg or matched placebo was administered once on the morning of Day 1 (in Period 1 and Period 2) as an oral solution in the fasted state. The dose was taken with 240 ml of water at room temperature. Subjects/patients were fasted overnight prior to dosing until 4 hours postdose. Water was allowed ad libitum except for 1 hour before and 1 hour after dosing.\nThe study also evaluated the plasma PK concentrations and parameters including but not limited to; AUC0-t, AUC0-∞, Cmax, tmax and T½ in male patients with ED. Blood samples for the determination of plasma concentrations of IP2015 were collected at predose, and 1, 4, 8 (post-stimulus challenge), and 24 hours postdose in each treatment period. The exploratory endpoint was the possible relationship between plasma PK levels and PD response as measured by RigiScan data.\nPlasma samples for the determination of concentrations of IP2015 were analysed by using a validated liquid chromatography-tandem mass spectrometry method. The RigiScan Plus Monitor was used for efficacy during the stimulus challenge.\n(§2) Safety parameters were listed and summarised using descriptive statistics. Pharmacokinetic parameter estimates were calculated using noncompartmental methods. Pharmacokinetic data were listed for each subject/patient and summarised by descriptive statistics."}, "[3]": {"system": "male patients with ED", "test": "Phase II single oral dose safety in male patients with ED", "type": "in vivo, human", "method": "as §1\nThe study evaluated the efficacy data from RigiScan assessments in male patients with ED and the clinical safety data from AE reporting, 12-lead ECGs, vital signs, physical examinations and clinical laboratory evaluations in male patients with ED.\nas §2"}, "[4]": {"test": "Plasma concentrations after repeat single oral doses in male subjects with ED", "type": "in vivo, human", "conditions": "5 mg and 10 mg; Week 1 and Week 4", "method": "On Day-7, and at the Week 1 (Day 1), Week 2, Week 3, Week 4 and Follow-up visits, all groups were asked to complete the IIEF-15 questionnaire. Group 2 was asked to complete a Visual Stimulation Assessment using a RigiScan Plus Monitor on Day-7, Week 1 (Day 1) and Week 4. Group 2 was also required to provide blood samples for pharmacokinetic assessment on Week 1 (Day 1) and Week 4. Group 3 was required to provide semen samples on Day-7 and Week 4.\nEfficacy was assessed through the International Index of Erectile Function (IIEF)-15 questionnaire. The change from baseline in responses to questions of the IIEF-15 questionnaire, including questions regarding erectile function, orgasmic function, sexual desire, intercourse satisfaction and overall satisfaction domain scores, was determined at different time points of the study. RigiScan assessments during the stimulus assessment, and sperm count and motility by semen sample collection was used for efficacy evaluation. Safety was assessed through AE reporting, 12-lead ECG, vital signs, physical examinations and clinical laboratory evaluations. Pharmacokinetics was assessed by blood sampling."}, "[5]": {"conditions": "overall, crossover 10 mg IP2015 and placebo"}, "[6]": {"conditions": "overall, crossover 10 mg IP2015 and placebo, 12 patients"}}, "note": "“Also recorded” adds a separate entry of the source. Like-named read-outs stand apart in the source and are kept apart here.", "data": [{"smiles": "COc1cc2ccc(OC3CC4CCC(C3)N4)cc2oc1=O", "note": "(centres unmarked) [IP2015, 7-[(8-azabicyclo[3.2.1]octan-3-yl)oxy]-3-methoxy-chromen-2-one]", "values": [{"measurement": "intracavernosal pressure", "setting": "[1]; anaesthetized rats, 0.1, 1, and 10 mg/kg in the jugular vein, in contrast to vehicle", "value": "induced transient increases in intracavernosal pressure corresponding to erections; also recorded: dose-dependent increases in intracavernous pressure"}, {"measurement": "responses to electrical field stimulation (EFS) of the cavernous nerve", "setting": "[1]; anaesthetized rats, IP2015 administration", "value": "without changing the responses to EFS"}, {"measurement": "magnitude of erectile responses, ICP increases as percentage of MAP", "setting": "[1]; anaesthetized rats, compared to vehicle", "value": "significantly increased compared to vehicle"}, {"measurement": "frequency, duration, and magnitude of spontaneous erections", "setting": "[1]; anaesthetized rats, i.v. 0.1, 1, 10 mg/kg", "value": "dose-dependently increased the number and the duration of spontaneous erections"}, {"measurement": "IP2015-induced erectile responses after cutting the cavernosal nerve", "setting": "[1]; anaesthetized rats, mechanical denervation", "value": "inhibited"}, {"measurement": "penile pressure", "setting": "[1]; direct intracavernosal injection", "value": "increased penile pressure"}, {"measurement": "Cmax", "setting": "[2]", "value": 15.7, "unit": "ng/mL"}, {"measurement": "AUC(0-t)", "setting": "[2]; read-out: mean AUC0-t", "value": 287, "unit": "ng·h/mL"}, {"measurement": "Tmax", "setting": "[2]; read-out: median tmax", "value": 4, "unit": "h"}, {"measurement": "Tmax", "setting": "[2]; read-out: tmax range", "value": "1 to 8.53", "unit": "h"}, {"measurement": "heart rate, increase from baseline", "setting": "[3]; 10 mg, 8 hours postdose", "value": 14.56, "unit": "bpm"}, {"measurement": "RR, PR, QRS, QT and QTcF intervals, IP2015 versus placebo", "setting": "[3]; male patients with ED, 10 mg", "value": "no significant treatment-related differences"}, {"measurement": "haematology, serum biochemistry or urinalysis data", "setting": "[3]; male patients with ED, 10 mg", "value": "no significant treatment- or dose-related trends"}, {"measurement": "standing and supine pulse rate", "setting": "[3]; male patients with ED, 10 mg", "value": "apparent treatment-related increase"}, {"measurement": "systolic blood pressure, diastolic blood pressure and oral temperature, IP2015 versus placebo", "setting": "[3]; male patients with ED, 10 mg", "value": "no significant treatment-related differences"}, {"measurement": "deaths or SAEs", "setting": "[3]; [5]", "value": "No deaths or SAEs were reported"}, {"measurement": "severity of TEAEs", "setting": "[3]; [5]", "value": "All events were mild in severity"}, {"measurement": "number of TEAEs", "setting": "[3]; [6]", "value": 19}, {"measurement": "patients experiencing TEAEs", "setting": "[3]; [6]", "value": "9 (75.0%)"}, {"measurement": "relation of plasma concentrations to dose", "setting": "[4]", "value": "linear relation of plasma concentrations to dose"}]}]}
